Several values for one entry are separate records, joined by “and”; a condition that tells them apart may be missing. Identical values can stand only once. Counter-ions that a name gives are not always drawn.
System: Long Evans rats
Assay: Behavioral satiety sequence (BSS)
Type: in vivo, Long Evans rat
Source text: The Behavioural Satiety Sequence (BSS) is a technique used to evaluate physiological satiety. It is based on the expression of a sequence of behaviors including eating, grooming, locomotor activity, followed by resting, which are typically observed in rodents post-ingestion (Halford et al, 1998, Pharmacology Biochemistry and Behaviour. 61(2): 159-168). The BSS is a widely used model for determining the effects of novel pharmaceuticals on food intake and measures of satiety in rodents (Oliveira et al, 2011, Revista de Nutrição. 24(4) 619-628), and to discriminate the cause of reduced food intake following pharmacological manipulation. For example, treatments that may reduce food intake by non-specific mechanisms, such as immobility, malaise, and taste adulteration, will disrupt this sequence (Halford et al, 1998, Pharmacology Biochemistry and Behaviour. 61(2): 159-168).
Specifically, 12 male Long-Evans rats were food-deprived for 22 h with a 2 h feeding period each day. Rats were trained to consume daily food during the 2 h period over 25 days. The testing phase was initiated once the rats consistently consumed 16-18 g of food per day with ≤10% variance in amount of feed consumed. Feeding took place in designated individual boxes in a quiet room separate from the housing room. Continuous remote monitoring via video camera during feeding was used to assess the BSS. Food consumption was measured by weighing the total available food before and after the 2 h feeding window, correcting for spillage. Lorcaserin (1 mg/kg) was included as a reference control (Higgins et al, 2011, Neuropsychopharmacology. 37(5): 1177-1191). Subjects were tested using a repeated-measures, Latin square design with 2-3 days wash-out between treatment cycles.
On scheduled test days, animals were monitored remotely via video camera during the feeding access period. The occurrence of four mutually exclusive behaviors (eating/drinking, grooming, active, rest) were individually scored. Over the 2 h feeding period, behaviors were assessed every 30 seconds. Scores were compiled into 23 5 min timebins (timebin 24 was removed due to early removal of animals) and the frequency of each behavior within each timebin was calculated to determine a temporal frequency of each measure (Rodgers et al, 2010, Pharmacology Biochemistry and Behaviour. 97: 3-14). Percentage time was plotted for each behavioral sequence in each timebin to compare between treatment groups (Higgins et al, 2011, Neuropsychopharmacology. 37(5): 1177-1191).

[1] = 1 mg/kg, AVG of animals LT-1 to LT-12
[2] = 1 mg/kg, raw score per animal LT-1 to LT-12, hydrochloride
[3] = Lorcaserin 1 mg/kg s.c., AVG of the group
[4] = Lorcaserin 1 mg/kg s.c., raw score per animal, hydrochloride

Structure (SMILES): C[C@H]1CNCCc2ccc(Cl)cc21 [lorcaserin, Lorcaserin hydrochloride, reference compound]
- BSS scoring A (active), Time Bin 13 (60-65 TOTAL), AVG [1]: 0.20
- BSS scoring A (active), Time Bin 14 (65-70 TOTAL), AVG [1]: 0.20
- BSS scoring A (active), Time Bin 15 (70-75 TOTAL), AVG [1]: 0.12
- BSS scoring A (active), Time Bin 16 (75-80 TOTAL), AVG [1]: 0.06
- BSS scoring A (active), Time Bin 17 (80-85 TOTAL), AVG [1]: 0.07
- BSS scoring A (active), Time Bin 18 (85-90 TOTAL), AVG [1]: 0.13
- BSS scoring E (eating/drinking), Time Bin 13 (60-65 TOTAL), AVG [1]: 0.66
- BSS scoring E (eating/drinking), Time Bin 14 (65-70 TOTAL), AVG [1]: 0.65
- BSS scoring E (eating/drinking), Time Bin 15 (70-75 TOTAL), AVG [1]: 0.70
- BSS scoring E (eating/drinking), Time Bin 16 (75-80 TOTAL), AVG [1]: 0.83
- BSS scoring E (eating/drinking), Time Bin 17 (80-85 TOTAL), AVG [1]: 0.84
- BSS scoring E (eating/drinking), Time Bin 18 (85-90 TOTAL), AVG [1]: 0.73
- BSS scoring G (grooming), Time Bin 13 (60-65 TOTAL), AVG [1]: 0.07
- BSS scoring G (grooming), Time Bin 14 (65-70 TOTAL), AVG [1]: 0.04
- BSS scoring G (grooming), Time Bin 15 (70-75 TOTAL), AVG [1]: 0.12
- BSS scoring G (grooming), Time Bin 16 (75-80 TOTAL), AVG [1]: 0.08
- BSS scoring G (grooming), Time Bin 17 (80-85 TOTAL), AVG [1]: 0.04
- BSS scoring G (grooming), Time Bin 18 (85-90 TOTAL), AVG [1]: 0.10
- BSS scoring R (resting), Time Bin 13 (60-65 TOTAL), AVG [1]: 0.08
- BSS scoring R (resting), Time Bin 14 (65-70 TOTAL), AVG [1]: 0.11
- BSS scoring R (resting), Time Bin 15 (70-75 TOTAL), AVG [1]: 0.07
- BSS scoring R (resting), Time Bin 16 (75-80 TOTAL), AVG [1]: 0.03
- BSS scoring R (resting), Time Bin 17 (80-85 TOTAL), AVG [1]: 0.05
- BSS scoring R (resting), Time Bin 18 (85-90 TOTAL), AVG [1]: 0.03
- BSS scoring A (active), Time Bin 13 (60-65 TOTAL) [2]: 6 and 5 and 2 (2×) and 1 (2×) and 0 (4×) and 4 and 3
- BSS scoring A (active), Time Bin 14 (65-70 TOTAL) [2]: 4 (3×) and 2 (4×) and 0 and 1 (4×)
- BSS scoring A (active), Time Bin 15 (70-75 TOTAL) [2]: 0 (5×) and 1 (4×) and 4 (2×) and 2
- BSS scoring A (active), Time Bin 16 (75-80 TOTAL) [2]: 0 (9×) and 2 and 1 and 4
- BSS scoring A (active), Time Bin 17 (80-85 TOTAL) [2]: 0 (8×) and 2 (4×)
- BSS scoring A (active), Time Bin 18 (85-90 TOTAL) [2]: 4 and 0 (5×) and 1 (4×) and 6 and 2
- BSS scoring E (eating/drinking), Time Bin 13 (60-65 TOTAL) [2]: 4 and 3 and 6 and 5 (2×) and 7 (2×) and 8 (3×) and 9 (2×)
- BSS scoring E (eating/drinking), Time Bin 14 (65-70 TOTAL) [2]: 6 (2×) and 5 and 7 and 10 and 4 (2×) and 8 (3×) and 3 and 9
- BSS scoring E (eating/drinking), Time Bin 15 (70-75 TOTAL) [2]: 6 (3×) and 9 (4×) and 2 and 10 and 3 and 8 and 7
- BSS scoring E (eating/drinking), Time Bin 16 (75-80 TOTAL) [2]: 10 (7×) and 1 and 9 (2×) and 5 and 6
- BSS scoring E (eating/drinking), Time Bin 17 (80-85 TOTAL) [2]: 8 (3×) and 9 (3×) and 10 (3×) and 7 (2×) and 6
- BSS scoring E (eating/drinking), Time Bin 18 (85-90 TOTAL) [2]: 4 and 9 (2×) and 6 (2×) and 10 (3×) and 7 (3×) and 3
- BSS scoring G (grooming), Time Bin 13 (60-65 TOTAL) [2]: 0 (8×) and 2 (2×) and 3 and 1
- BSS scoring G (grooming), Time Bin 14 (65-70 TOTAL) [2]: 0 (8×) and 1 (3×) and 2
- BSS scoring G (grooming), Time Bin 15 (70-75 TOTAL) [2]: 0 (6×) and 3 and 1 (4×) and 7
- BSS scoring G (grooming), Time Bin 16 (75-80 TOTAL) [2]: 0 (10×) and 6 and 3
- BSS scoring G (grooming), Time Bin 17 (80-85 TOTAL) [2]: 0 (8×) and 1 (3×) and 2
- BSS scoring G (grooming), Time Bin 18 (85-90 TOTAL) [2]: 2 (3×) and 1 (3×) and 0 (5×) and 3
- BSS scoring R (resting), Time Bin 13 (60-65 TOTAL) [2]: 0 (7×) and 2 and 4 and 1 (3×)
- BSS scoring R (resting), Time Bin 14 (65-70 TOTAL) [2]: 0 (7×) and 1 (2×) and 4 (2×) and 3
- BSS scoring R (resting), Time Bin 15 (70-75 TOTAL) [2]: 4 and 1 (2×) and 0 (8×) and 2
- BSS scoring R (resting), Time Bin 16 (75-80 TOTAL) [2]: 0 (9×) and 1 (2×) and 2
- BSS scoring R (resting), Time Bin 17 (80-85 TOTAL) [2]: 2 (2×) and 1 (2×) and 0 (8×)
- BSS scoring R (resting), Time Bin 18 (85-90 TOTAL) [2]: 0 (9×) and 2 and 1 (2×)
- effect on the behavioral satiety sequence (BSS) (Compound I-19 0.1-3 mg/kg IP, lorcaserin 1 mg/kg SC): preserved the BSS at the 1 mg/kg dose
- BSS scoring A (active), Time Bin 7 (30-35 TOTAL), AVG [3]: 0.18
- BSS scoring A (active), Time Bin 8 (35-40 TOTAL), AVG [3]: 0.21
- BSS scoring A (active), Time Bin 9 (40-45 TOTAL), AVG [3]: 0.10
- BSS scoring A (active), Time Bin 10 (45-50 TOTAL), AVG [3]: 0.16
- BSS scoring A (active), Time Bin 11 (50-55 TOTAL), AVG [3]: 0.09
- BSS scoring A (active), Time Bin 12 (55-60 TOTAL), AVG [3]: 0.10
- BSS scoring E (eating/drinking), Time Bin 7 (30-35 TOTAL), AVG [3]: 0.68
- BSS scoring E (eating/drinking), Time Bin 8 (35-40 TOTAL), AVG [3]: 0.68
- BSS scoring E (eating/drinking), Time Bin 9 (40-45 TOTAL), AVG [3]: 0.74
- BSS scoring E (eating/drinking), Time Bin 10 (45-50 TOTAL), AVG [3]: 0.78
- BSS scoring E (eating/drinking), Time Bin 11 (50-55 TOTAL), AVG [3]: 0.75
- BSS scoring E (eating/drinking), Time Bin 12 (55-60 TOTAL), AVG [3]: 0.83
- BSS scoring G (grooming), Time Bin 7 (30-35 TOTAL), AVG [3]: 0.12
- BSS scoring G (grooming), Time Bin 8 (35-40 TOTAL), AVG [3]: 0.09
- BSS scoring G (grooming), Time Bin 9 (40-45 TOTAL), AVG [3]: 0.12
- BSS scoring G (grooming), Time Bin 10 (45-50 TOTAL), AVG [3]: 0.01
- BSS scoring G (grooming), Time Bin 11 (50-55 TOTAL), AVG [3]: 0.04
- BSS scoring G (grooming), Time Bin 12 (55-60 TOTAL), AVG [3]: 0.05
- BSS scoring R (resting), Time Bin 7 (30-35 TOTAL), AVG [3]: 0.03
- BSS scoring R (resting), Time Bin 8 (35-40 TOTAL), AVG [3]: 0.03
- BSS scoring R (resting), Time Bin 9 (40-45 TOTAL), AVG [3]: 0.04
- BSS scoring R (resting), Time Bin 10 (45-50 TOTAL), AVG [3]: 0.06
- BSS scoring R (resting), Time Bin 11 (50-55 TOTAL), AVG [3]: 0.12
- BSS scoring R (resting), Time Bin 12 (55-60 TOTAL), AVG [3]: 0.02
- BSS scoring A (active), Time Bin 7 (30-35 TOTAL) [4]: 0 (4×) and 3 and 1 (3×) and 4 and 2 (2×) and 7
- BSS scoring A (active), Time Bin 8 (35-40 TOTAL) [4]: 4 (2×) and 2 (2×) and 1 (4×) and 3 (3×) and 0
- BSS scoring A (active), Time Bin 9 (40-45 TOTAL) [4]: 0 (7×) and 2 and 1 (3×) and 7
- BSS scoring A (active), Time Bin 10 (45-50 TOTAL) [4]: 2 (2×) and 4 and 0 (7×) and 10 and 1
- BSS scoring A (active), Time Bin 11 (50-55 TOTAL) [4]: 0 (6×) and 2 (2×) and 1 (3×) and 4
- BSS scoring A (active), Time Bin 12 (55-60 TOTAL) [4]: 2 (2×) and 0 (6×) and 1 (3×) and 5
- BSS scoring E (eating/drinking), Time Bin 7 (30-35 TOTAL) [4]: 6 (4×) and 7 (2×) and 8 (2×) and 5 and 3 and 10 (2×)
- BSS scoring E (eating/drinking), Time Bin 8 (35-40 TOTAL) [4]: 5 (3×) and 7 and 9 and 8 (3×) and 4 and 6 (2×) and 10
- BSS scoring E (eating/drinking), Time Bin 9 (40-45 TOTAL) [4]: 10 (2×) and 7 (2×) and 9 (2×) and 8 (3×) and 2 and 6 and 5
- BSS scoring E (eating/drinking), Time Bin 10 (45-50 TOTAL) [4]: 8 (2×) and 6 (2×) and 10 (4×) and 0 and 9 (2×) and 7
- BSS scoring E (eating/drinking), Time Bin 11 (50-55 TOTAL) [4]: 10 (3×) and 7 (3×) and 1 and 8 (4×) and 6
- BSS scoring E (eating/drinking), Time Bin 12 (55-60 TOTAL) [4]: 6 and 7 (2×) and 9 (5×) and 10 (3×) and 5
- BSS scoring G (grooming), Time Bin 7 (30-35 TOTAL) [4]: 3 and 1 (3×) and 2 (4×) and 0 (4×)
- BSS scoring G (grooming), Time Bin 8 (35-40 TOTAL) [4]: 1 (7×) and 0 (3×) and 2 (2×)
- BSS scoring G (grooming), Time Bin 9 (40-45 TOTAL) [4]: 0 (4×) and 1 (5×) and 2 and 3 and 4
- BSS scoring G (grooming), Time Bin 10 (45-50 TOTAL) [4]: 0 (11×) and 1
- BSS scoring G (grooming), Time Bin 11 (50-55 TOTAL) [4]: 0 (7×) and 1 (5×)
- BSS scoring G (grooming), Time Bin 12 (55-60 TOTAL) [4]: 2 (2×) and 0 (8×) and 1 (2×)
- BSS scoring R (resting), Time Bin 7 (30-35 TOTAL) [4]: 1 (3×) and 0 (9×)
- BSS scoring R (resting), Time Bin 8 (35-40 TOTAL) [4]: 0 (9×) and 1 (3×)
- BSS scoring R (resting), Time Bin 9 (40-45 TOTAL) [4]: 0 (9×) and 1 (2×) and 3
- BSS scoring R (resting), Time Bin 10 (45-50 TOTAL) [4]: 0 (8×) and 4 and 1 (3×)
- BSS scoring R (resting), Time Bin 11 (50-55 TOTAL) [4]: 0 (7×) and 2 (3×) and 7 and 1
